Measured values: patent US20260000658A1, “METHODS FOR THE TREATMENT OF PROLIFERATIVE GLOMERULONEPHRITIS” (INSTITUT NATIONAL DE LA SANTÉ ET DE LA RECHERCHE MÉDICALE, priority 2022, published 2026)

Key:
NZBWF1/J mice = test: Uninephrectomized NZBWF1/J mice (lupus nephritis model), vehicle or alpelisib for 4 weeks; format: in vivo, mouse
Description: A. Urinary albumin to creatinine ratio B. Blood urea nitrogen level, C. kidney to body weight ratio of NZBWF1/J mice at the time of sacrifice (4 weeks following either sham operation or uninephrectomy followed by the treatment either with vehicle or alpelisib) (n=5-15 mice per group). D. Representative P-S6RP/Nephrin coimmunofluorescence staining of kidneys from 4 weeks following either sham operation or uninephrectomy followed by the treatment either with vehicle or alpelisib) (n=4-6 mice per group). Scale bar […]. E. P-S6RP mean intensity quantification (n=4-6 mice per group). F. Col3a, G. Col1a, and H. Tnfα quantification of qRT-PCR analysis in the kidney cortex of kidneys at the time of sacrifice (4 weeks following either sham operation or uninephrectomy followed by the treatment either with vehicle or alpelisib) (n=5-15 mice per group). I. Kaplan-Meier survival curves of MRL-lpr mice treated either with vehicle or alpelisib (n=13-14 mice per group). J. Urinary albumin to creatinine ratio of MRL-lpr mice treated either with vehicle or alpelisib from 8 weeks old till death (n=13-14 mice per group). K. Vehicle treated mice, and L. alpelisib treated mice of the trajectory of urinary albumin to creatinine ratio of MRL-lpr mice (n=13-14 mice per group).
(§1) For the uninephrectomy experiments, the right kidneys were removed under anesthesia. For the medical treatment of mice, 50 mg kg −1 alpelisib (MedChem Tronica) in 1% carboxymethylcellulose (Sigma Aldrich)+0.5% Tween (Sigma Aldrich) or vehicle (1% carboxymethylcellulose+0.5% Tween) was administered by oral gavage daily for the indicated periods of time. Blood and urines were obtained at the indicated times. At euthanasia, blood, urines, kidneys were harvested. In some experiments, spleens, hearts, and bone marrow (BM) in femurs and tibias were harvested as well. Tissues were fixed in 4% paraformaldehyde and paraffin embedded for immunohistochemical analysis, snap-frozen in Optimal Cutting Temperature (OCT), or stored at −80° C. for mRNA or protein analysis.
(§2) Mouse blood counts were analyzed using a hematology analyzer (ProCyte Dx; IDEXX Laboratories). Mouse serum creatinine, blood urea nitrogen, urinary albumin, and urinary creatinine were evaluated using an AU5800 (Beckman Coulter) autoanalyzer. Serum anti-dsDNA measurement was performed according to the manufacturer's instruction using mouse anti-dsDNA ELISA kit (LBIS). The absorbance was measured using Ininite M Nano (TECAN).
4-μm kidney sections were stained with periodic acid-Schiff (PAS), Masson's Trichrome (MT), Periodic acid metenamine silver (PAM) or Hematoxylin and Eosin (HE) staining for histological analysis. The degree of glomerular lesions was evaluated using the following scoring system: 0=no lesion, 1=affecting up to 25% of the glomerulus, 2=affecting 25-50% of the glomerulus, 3=affecting 50-75% of the glomerulus, and 4=affecting 75-100%. At least 50 glomeruli per sample were measured for each analysis. An indirect immunoperoxidase method was used for immunohistochemistry. Briefly, after deparaffinization, antigen retrieval was performed with citrate buffer (pH6) or Tris-EDTA buffer (pH9 or pH6) using microwave or high temperature (95° C.). Endogenous peroxidase activity was quenched using 3% hydrogen peroxide; nonspecific protein binding was blocked using 2.5% normal horse serum (Vector Laboratories), and endogenous biotin activity was quenched using the Avidin/Biotin Blocking Kit (Vector Laboratories). When using mouse primary antibodies on mouse tissue, Klear mouse blocking reagent (Diagomics) was used to block endogenous mouse immunoglobulins. After blocking, the tissue sections were incubated with the primary antibodies overnight at 4° C. […]

MRL-lpr mice = test: MRL-lpr mice, 12 weeks old, treated for 4 weeks; format: in vivo, mouse
Experimental: as §1, §2
4-μm kidney sections were stained with periodic acid-Schiff (PAS), Masson's Trichrome (MT), Periodic acid metenamine silver (PAM) or Hematoxylin and Eosin (HE) staining for histological analysis. The degree of glomerular lesions was evaluated using the following scoring system: 0=no lesion, 1=affecting up to 25% of the glomerulus, 2=affecting 25-50% of the glomerulus, 3=affecting 50-75% of the glomerulus, and 4=affecting 75-100%. At least 50 glomeruli per sample were measured for each analysis. An indirect immunoperoxidase method was used for immunohistochemistry. Briefly, after deparaffinization, antigen retrieval was performed with citrate buffer (pH6) or Tris-EDTA buffer (pH9 or pH6) using microwave or high temperature (95° C.). Endogenous peroxidase activity was quenched using 3% hydrogen peroxide; nonspecific protein binding was blocked using 2.5% normal horse serum (Vector Laboratories), and endogenous biotin activity was quenched using the Avidin/Biotin Blocking Kit (Vector Laboratories). When using mouse primary antibodies on mouse tissue, Klear mouse blocking reagent (Diagomics) was used to block endogenous mouse immunoglobulins. After blocking, the tissue sections were incubated with the primary antibodies overnight at 4° C. The following primary antibodies were used: rabbit anti-Ki67 antibody (SP6; Thermo Fisher Scientific), rabbit anti-P-S6RP antibody (D68F8; Cell Signaling Technology), mouse anti-P-AKT (Ser473) antibody (587F11; Cell Signaling Technology), rabbit anti-P-AKT (Thr308) antibody (C31E5E; Cell Signaling Technology), mouse anti-S6RP antibody (54E2; Cell Signaling Technology), chicken anti-GFP antibody (Abcam), guinea pig anti-Nephrin antibody (GP-N2; Progen), rabbit anti-Podocin antibody (P0372; Sigma Aldrich), mouse anti-WTI antibody (6F-H2; DAKO). The corresponding secondary antibodies including anti-mouse IgG, anti-rabbit IgG, anti-guinea pig IgG, biotinylated anti-rabbit IgG (Vector Laboratories), and biotinylated anti-mouse IgG (Vector Laboratories) were applied. For Avidin/Biotin detection, an R.T.U. Vectastain Kit (Vector Laboratories) or streptavidin (Thermo Fisher Scientific) was used. The immunoreactive antigens sites were detected with hydrogen peroxide and diaminobenzidine. For frozen immunofluorescent staining, frozen tissue sections (4 μm) were briefly air dried and fixed in 50% methanol/50% acetone. The sections were then blocked with 2.5% normal horse serum and incubated with primary antibodies: guinea pig anti-Nephrin antibody (GP-N2; Progen) overnight at 4° C. The sections were then incubated at room temperature for 40 min with secondary antibodies: fluorescein isothiocyanate-conjugated (FITC) anti-mouse IgG (Sigma Aldrich), FITC anti-mouse IgM (BD Biosciences), or FITC anti-mouse C3 antibody (abcam). […]

[1] = 4 weeks treatment, at sacrifice

Cc1nc(NC(=O)N2CCC[C@H]2C(N)=O)sc1-c1ccnc(C(C)(C)C(F)(F)F)c1 [alpelisib, Alpelisib]
anemia (NZBWF1/J mice; 4 weeks treatment): partial correction of anemia
glomerular AKT/mTOR pathway activation (P-S6RP) (NZBWF1/J mice; 4 weeks treatment): blunted
glomerular IgG, IgM and C3 deposits (NZBWF1/J mice; 4 weeks treatment): significantly reduced
level of dsDNA (NZBWF1/J mice; 4 weeks treatment): tendency to decrease
platelet count (NZBWF1/J mice; 4 weeks treatment): significant increase in platelet count
podocyte differentiation markers (NZBWF1/J mice; 4 weeks treatment): significantly improved
blood urea nitrogen levels (NZBWF1/J mice; [1]): lower blood urea nitrogen levels
kidney to body weight ratio (NZBWF1/J mice; [1]): significantly reduced
glomeruli, histological level (NZBWF1/J mice; 4 weeks treatment, vs vehicle): preserved glomeruli
kidney lesions (title of FIG. 4) (NZBWF1/J mice; Lupus Nephritis models (NZBWF1/J and MRL-lpr)): improves kidney lesions
spleen size (NZBWF1/J mice; both sham and uninephrectomized mice): significantly reduced
albuminuria (urinary albumin to creatinine ratio) (NZBWF1/J mice; females, uninephrectomy at 24 weeks, 4 weeks treatment, at sacrifice): significantly less albuminuria
Col1a and Col3a mRNA expression (NZBWF1/J mice; kidney cortex, qRT-PCR): reduced
TNFa mRNA expression (NZBWF1/J mice; kidney cortex, qRT-PCR): reduced
progression of glomerular lesions (NZBWF1/J mice; sacrifice vs kidney removed at uninephrectomy): remained stable
proteinuria (MRL-lpr mice; 12 weeks old females, 4 consecutive weeks): proteinuria reduction
Cola1 and Cola3 mRNA expression (MRL-lpr mice; 12 weeks old, 4 weeks): improved
dsDNA antibodies (MRL-lpr mice; 12 weeks old, 4 weeks): significantly reduced
glomerular AKT/mTOR pathway (MRL-lpr mice; 12 weeks old, 4 weeks): inhibited
glomerular lesion score (MRL-lpr mice; 12 weeks old, 4 weeks): improved
expression of podocyte differentiation markers (MRL-lpr mice; vs vehicle): increased
